From US8377935B2, “Substituted aminopropenyl piperidine or morpholine derivatives as novel inhibitors of histone deacetylase” (Janssen Pharmaceutica N.V., priority 2005, dated 2013)

Legend:
[1] = Metabolic stability with rat hepatocytes cell culture; assay type: in vitro ADME; details: rat hepatocyte cell cultures, 5 μM
Text: Metabolism of drugs means that a lipid-soluble xenobiotic or endobiotic compound is enzymatically transformed into (a) polar, water-soluble, and excretable metabolite(s). The major organ for drug metabolism is the liver. […] However, some metabolites may have enhanced activity or toxic effects. Thus drug metabolism may include both “detoxication” and “toxication” processes. One of the major enzyme systems that determine the organism's capability of dealing with drugs and chemicals is represented by the cytochrome P450 monooxygenases, which are NADPH dependent enzymes. Metabolic stability of compounds can be determined in vitro with the use of subcellular human tissue (see example C.5.a.). Here metabolic stability of the compounds is expressed as % of drug metabolised after 15 minutes incubation of these compounds with microsomes. Quantitation of the compounds was determined by LC-MS analysis. Metabolic stability of compounds can also be determined by calculating the half live of compounds in rat hepatocyte cells (see example C.5.b.). […]
Samples were prepared for LC-MS by addition of two volumes of DMSO. […] Of the resulting supernatant 50 μl was analysed by LC-MS. […]
Total injection volume of samples was 50 μL. […] The mass spectrometer was operated in positive ion mode in SIM adjusted to the mass of […] with a scan width of 1 Da for quantification purposes. […]

[2] = test system: p21 promoter; test: p21 induction capacity, cellular method (ZsGreen reporter in A2780 clones); assay type: cell-based, human; details: A2780 clones with p21 1300 bp promoter-ZsGreen reporter, 24 hours treatment, percentage of control
Method: A first method tests the capacity of compounds to induce p21 as the consequence of HDAC inhibition at the cellular level. […] The reporter gene is a fluorescent protein and the expression of the reporter gene is measured as the amount of fluorescent light emitted (see example C.6.a.). The second method is an in vivo method wherein mice are used for screening the pharmaceutical activity of a compound. The above described stably transformed tumour cells can be administered to mice in an amount sufficient to effect production of a tumour. After the tumour cells had sufficient time to form a tumour, a potentially active compound can be administered to the animals and the effect of said compound On the tumour cells is evaluated by measuring the expression of the reporter gene. […]
The A2780 selected clones were expanded and seeded at 10000 cells per well into 96-well plates. […] The p21 promoter activation leading to ZsGreen production and thus fluorescence, was monitored by the Ascent Fluoroskan (Thermo Labsystems, Brussels, Belgium).
For each experiment, controls (containing no drug) and a blank incubation (containing no cells or drugs) were run in parallel. […] For each sample, the value for p21 induction was expressed as the percentage of the value for p21 present in the control. […]

Compound: O=C(NO)c1cnc(N2CCC(CNC(/C=C/c3ccccc3)CO)CC2)nc1 (centres unmarked) [Compound 1]
- in vitro half-live [1]: 103 min
- p21 induction [2]: significant induction (Percentage induction higher than 130% was defined as significant induction)
